Data as given in patent US9708259B2 (Hoffmann-La Roche Inc., priority 2013, dated 2017).
Residue numbers refer to the chain shown, from its start. Read-outs that look alike come from different tables or passages of the source.

Legend:
human M1 = biological target: T1, human M1 (Homo sapiens, UniProt P11229); assay: M1 PAM assay (FLIPR intracellular calcium), human M1; format: cell-based
T1 construct: expressed in transfected cells; host or cells: CHO cells
T1 sequence (P11229 1-460): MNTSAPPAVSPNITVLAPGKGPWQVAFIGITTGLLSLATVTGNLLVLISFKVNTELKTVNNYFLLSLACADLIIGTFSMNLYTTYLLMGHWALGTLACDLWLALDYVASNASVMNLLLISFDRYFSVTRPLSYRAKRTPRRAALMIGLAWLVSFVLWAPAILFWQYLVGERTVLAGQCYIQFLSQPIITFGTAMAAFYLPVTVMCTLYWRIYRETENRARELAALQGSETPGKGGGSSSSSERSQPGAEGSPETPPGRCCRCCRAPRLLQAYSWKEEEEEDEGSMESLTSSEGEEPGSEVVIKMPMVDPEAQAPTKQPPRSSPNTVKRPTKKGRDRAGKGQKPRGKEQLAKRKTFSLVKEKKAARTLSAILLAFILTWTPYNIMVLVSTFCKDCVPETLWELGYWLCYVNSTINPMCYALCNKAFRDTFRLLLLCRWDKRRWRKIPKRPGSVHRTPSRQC
Description: The assay study the effect of several concentrations of test compounds on basal or acetylcholine-stimulated Ca^2+ levels using FLIPR.
CHO human M1 are plated the day before the experiments at 2×10^5 cells/ml in PDL BioCoat 96 well black/clear plate (Becton 35 4640). The cells are grown at 37° C. and 5% CO2 in the following medium: F12 Nut Mix (Gibco 21765), 10% FCS heat inactivated (GIBCO 16000-044), 1% Pen Strep (Gibco,15140) and 200 μg/ml Geneticin (Gibco 11811). On the day of the experiment, the medium was removed and replaced by […] of dye loading buffer containing Hanks Balanced Salt solution (HBSS, 14065-049, Gibco) with 20 mM HEPES (Gibco 15630-056), 2 mM Probenicid (Sigma P8761), […] ester (Molecular Probes F-14202), 10% Pluronic acid Molecular Probes P-3000) pH=7.4 and incubated at 37° C. After 60 minutes extracellular dye was removed and the cells were washed five times with FLIPR buffer containing HBSS (Gibco 14065-049) with 20 mM HEPES (Gibco, 15630-056), 2 mM Probenicid (Sigma P8761) pre-warmed at 37° C. using and Ebml cell washer leaving […] of FLIPR buffer in each well. The cell plate and the diluted compounds (1% DMSO final concentration) are placed on the platform of the FLIPR and the door closed. A signal test to check background fluorescence and basal fluorescence signal is performed. Laser intensity is adjusted if necessary. Two minutes preincubation with the diluted test compounds is provide to determine any agonist activity on the M1 receptor by comparison to 30 nM Acetylcholine control. In order to determine any modulator activity the diluted compounds were added to cells and after two minutes preincubation, the EC20 of acetylcholine is added followed by another two minutes preincubation before the measurement of intracellular Ca^2+ with a FLIPR (Molecular Devices).

ratM1 = biological target: T2, ratM1 (Rattus norvegicus, UniProt P08482); assay: M1 PAM assay (FLIPR intracellular calcium), rat M1; format: cell-based
T2 construct: expressed in transfected cells; host or cells: CHO cells (stated generally for the assay, not specifically for rat M1)
T2 sequence (P08482 1-460): T1 sequence (P11229 1-460) with A5V, T254S, P309S, R320K, A337G, I413V

[1] = rat M1, FLIPR Ca2+, second value of the cell, read-out: ratM1 EC50
[2] = CHO human M1 cells, FLIPR Ca2+, with EC20 of acetylcholine, first value of the cell, read-out: hM1 EC50

SMILES	EC50 (human M1; [2])	other results
O=C(N[C@H]1CCCC[C@@H]1O)c1cn(Cc2ccc(OC(F)F)cc2)c2cccc(F)c12 [Example 29, 1-(4-(difluoromethoxy)benzyl)-4-fluoro-N-((1S,2S)-2-hydroxycyclohexyl)-1H-indole-3-carboxamide]	–	EC50 (human M1): 226 nM
CO[C@H]1COC[C@@H]1NC(=O)c1cn(Cc2ccc(-c3cnn(C)c3)cc2)c2cccc(F)c12 [Example 8, 4-fluoro-N-[(3S,4R)-4-methoxyoxolan-3-yl]-1-[[4-(1-methylpyrazol-4-yl)phenyl]methyl]indole-3-carboxamide]	278 nM	EC50 (ratM1; [1]): 427 nM
Cn1cc(-c2ccc(Cn3nc(C(=O)NC4CCOCC4)c4c(F)cccc43)cc2)cn1 [Example 69, 4-fluoro-1-(4-(1-methyl-1H-pyrazol-4-yl)benzyl)-N-(tetrahydro-2H-pyran-4-yl)-1H-indazole-3-carboxamide]	344 nM	–
O=C(N[C@H]1CCCC[C@@H]1O)c1cn(Cc2ccc(Cl)cc2)c2cccc(F)c12 [Example 38, 1-(4-chlorobenzyl)-4-fluoro-N-((1S,2S)-2-hydroxycyclohexyl)-1H-indole-3-carboxamide]	–	EC50 (ratM1): 382 nM; EC50 (human M1): 131 nM
CNC(=O)c1ccc(Cn2cc(C(=O)N[C@H]3CCCC[C@@H]3O)c3c(F)cccc32)cc1 [Example 59, 4-fluoro-N-((1S,2S)-2-hydroxycyclohexyl)-1-(4-(methylcarbamoyl)benzyl)-1H-indole-3-carboxamide]	4.33 nM	EC50 (ratM1; [1]): 4.35 nM
Cc1ccc(F)c2c(C(=O)N[C@H]3CCCC[C@@H]3O)cn(Cc3ccc(-c4cnn(C)c4)cc3F)c12 [Example 45, 4-fluoro-1-(2-fluoro-4-(1-methyl-1H-pyrazol-4-yl)benzyl)-N-((1S,2S)-2-hydroxycyclohexyl)-7-methyl-1H-indole-3-carboxamide]	36.1 nM	EC50 (ratM1; [1]): 74.1 nM
Cn1cc(-c2ccc(Cn3cc(C(=O)N[C@H]4CCCC[C@@H]4O)c4c(F)c(F)c(F)c(F)c43)cc2)cn1 [Example 53, 4,5,6,7-tetrafluoro-N-((1S,2S)-2-hydroxycyclohexyl)-1-(4-(1-methyl-1H-pyrazol-4-yl)benzyl)-1H-indole-3-carboxamide]	44.1 nM	EC50 (ratM1; [1]): 47.5 nM
CNC(=O)c1ccc(Cn2cc(C(=O)NC3CCSCC3)c3c(F)cccc32)cc1F [Example 167, 4-fluoro-1-(3-fluoro-4-(methylcarbamoyl)benzyl)-N-(tetrahydro-2H-thiopyran-4-yl)-1H-indole-3-carboxamide]	47 nM	–
CNC(=O)c1cccc(Cn2cc(C(=O)N[C@H]3CCCC[C@@H]3O)c3c(F)cccc32)c1 [Example 89, 4-fluoro-N-((1S,2S)-2-hydroxycyclohexyl)-1-(3-(methylcarbamoyl)benzyl)-1H-indole-3-carboxamide]	319 nM	–
Cn1cc(-c2cccc(Cn3cc(C(=O)N[C@H]4CCCC[C@@H]4O)c4c(F)cccc43)c2)cn1 [Example 35, 4-fluoro-N-((1S,2S)-2-hydroxycyclohexyl)-1-(3-(1-methyl-1H-pyrazol-4-yl)benzyl)-1H-indole-3-carboxamide]	226 nM	–
CS(=O)(=O)c1ccc(Cn2cc(C(=O)N[C@H]3CCCC[C@@H]3O)c3c(F)cccc32)cc1 [Example 82, 4-fluoro-N-((1S,2S)-2-hydroxycyclohexyl)-1-(4-(methylsulfonyl)benzyl)-1H-indole-3-carboxamide]	435 nM	–
COc1ccc(Cn2cc(C(=O)N[C@H]3CCCC[C@@H]3O)c3c(F)cccc32)c(F)c1 [Example 28, 4-fluoro-1-(2-fluoro-4-methoxybenzyl)-N-((1S,2S)-2-hydroxycyclohexyl)-1H-indole-3-carboxamide]	–	EC50 (human M1): 272 nM
CN(C)C(=O)c1cccc(Cn2cc(C(=O)N[C@H]3CCCC[C@@H]3O)c3c(F)cccc32)c1 [Example 90, 1-(3-(dimethylcarbamoyl)benzyl)-4-fluoro-N-((1S,2S)-2-hydroxycyclohexyl)-1H-indole-3-carboxamide]	341 nM	–
N#Cc1cccc(Cn2cc(C(=O)N[C@H]3CCCC[C@@H]3O)c3c(F)cccc32)c1 [Example 40, 1-(3-cyanobenzyl)-4-fluoro-N-((1S,2S)-2-hydroxycyclohexyl)-1H-indole-3-carboxamide]	–	EC50 (human M1): 476 nM
O=C(N[C@H]1CCCC[C@@H]1O)c1cn(Cc2cccc(Cl)c2)c2cccc(F)c12 [Example 39, 1-(3-chlorobenzyl)-4-fluoro-N-((1S,2S)-2-hydroxycyclohexyl)-1H-indole-3-carboxamide]	–	EC50 (human M1): 205 nM
CCOC(=O)Nc1ccc(Cn2cc(C(=O)N[C@H]3CCCC[C@@H]3O)c3c(F)cccc32)cc1 [Example 85, ethyl 4-((4-fluoro-3-((1S,2S)-2-hydroxycyclohexylcarbamoyl)-1H-indol-1-yl)methyl)phenylcarbamate]	42.9 nM	–
CNC(=O)c1ccc(Cn2cc(C(=O)NC3CCOC(C)(C)C3)c3c(F)cccc32)cc1F (centres unmarked) [Example 166, N-(2,2-dimethyltetrahydro-2H-pyran-4-yl)-4-fluoro-1-(3-fluoro-4-(methylcarbamoyl)benzyl)-1H-indole-3-carboxamide]	35 nM	–
O=C(N[C@H]1CCCC[C@@H]1O)c1cn(CC2CCN(c3ccccn3)CC2)c2cccc(F)c12 [Example 160, 4-Fluoro-N-((1S,2S)-2-hydroxycyclohexyl)-1-((1-(pyridin-2-yl)piperidin-4-yl)methyl)-1H-indole-3-carboxamide]	196 nM	–
CNC(=O)c1ccc(Cn2cc(C(=O)NC3CCCCC3(F)F)c3c(F)cccc32)cc1F (centres unmarked) [Example 165, N-(2,2-difluorocyclohexyl)-4-fluoro-1-(3-fluoro-4-(methy7lcarbamoyl)benzyl)-1H-indole-3-carboxamide]	43 nM	–
O=C(N[C@H]1CCCC[C@@H]1O)c1cn(Cc2ccc(OC(F)(F)F)cc2)c2cccc(F)c12 [Example 34, 4-fluoro-N-((1S,2S)-2-hydroxycyclohexyl)-1-(4-(trifluoromethoxy)benzyl)-1H-indole-3-carboxamide]	–	EC50 (human M1): 342 nM
Cn1cc(-c2ccc(Cn3cc(C(=O)N[C@H]4CCCC[C@@H]4O)c4c(F)c(F)ccc43)cc2)cn1 [Example 57, 4,5-difluoro-N-((1S,2S)-2-hydroxycyclohexyl)-1-(4-(1-methyl-1H-pyrazol-4-yl)benzyl)-1H-indole-3-carboxamide]	139 nM	–
CNC(=O)c1ccc(Cn2cc(C(=O)NC3CCOCC3C)c3c(F)cccc32)cc1F (centres unmarked) [Example 168, 4-fluoro-1-(3-fluoro-4-(methylcarbamoyl)benzyl)-N-(3-methyltetrahydro-2H-pyran-4-yl)-1H-indole-3-carboxamide]	97 nM	–
NC(=O)c1cccc(Cn2cc(C(=O)N[C@H]3CCCC[C@@H]3O)c3c(F)cccc32)c1 [Example 81, 1-(3-carbamoylbenzyl)-4-fluoro-N-((1S,2S)-2-hydroxycyclohexyl)-1H-indole-3-carboxamide]	351 nM	–
Cn1cc(-c2ccc(Cn3cc(C(=O)NC4CCCCC4(F)F)c4c(F)cccc43)c(F)c2)cn1 (centres unmarked) [Example 25, N-(2,2-difluorocyclohexyl)-4-fluoro-1-(2-fluoro-4-(1-methyl-1H-pyrazol-4-yl)benzyl)-1H-indole-3-carboxamide]	359 nM	–
